Experimental data published in patent US20040147595A1, “Biofilm degrading or sloughing compositions and methods” (priority 2001, published 2004).

What was measured:
[1] = system: las quorum sensing system (lasB-gfp(ASV) Plac-lasR); assay: pMHLAS lasB-gfp(ASV) reporter in E. coli MT102; assay type: cell-based, Escherichia coli; conditions: E. coli MT102 host, data not shown
Method: AHL and furanone bioassay. Strains were grown exponentially in LB or ABt medium supplemented with 0.5% glucose at 30° C., shading at 250 rpm. At an optical density of approximately 0.8. the cultures were diluted and split into subcultures in glass culture flasks. AHLs and furanone 56 were added to appropriate concentrations and the cultures were further incubated at 30° C. under vigorous shaking. Culture samples were retrieved at various time intervals and green fluorescence was measured with a fluorometer (model RF-1501, Shimadzu, Tokyo, Japan) set at an excitation wavelength of 475 nm and emission wavelength of 515 nm. Relative fluorescence was calculated as green fluorescence normalized to 1 ml culture divided by the optical density (OD600 nm.
Initially, the lasB-gfp(ASV) translational fusion (OdDHL sensor) was thoroughly characterized with respect to its sensitivity and specificity. A culture of E. coli hosting the pMHLAS monitor plasmid was diluted and spilt into several subcultures which were then supplemented with AHLs at concentrations ranging from 0 to 1000 nM. […] When the pMHLAS based reporter system was hosted by PAO-JP2. the OdDHL concentration required for half-maximal activation of the lasB-gfp(ASV) fusion was 8 nM (data not shown). In single copy on the chromosome of PAO-JP2, the OdDHL concentration on required for half-maximal activation of lasB expression was approximately 250 nM (FIG. 2b). Green fluorescent cells were visible by epifluorescence microscopy at a minimal OdDHL concentration of 50 nM (FIG. 2c).
Effect of the furanone in a heterologous background. The direct regulation exerted by the las regulon on lasB expression is well described by numerous studies (Gambello & Iglewski, 1991: Pearson et al., 1994; Pearson et al., 1997). Regulatory complexity is added by the observation that the las quorum sensing circuit itself is subject to global regulators (Albus et al., 1997; Whiteley et al., 2000) and that lasB expression is also controlled by other regulators than LasR (Brumlik & Storey, 1992; Pesci et al., 1999; Schictman et al., 1995). It was, therefore, important to rule out that QSI effect, observed is not caused by furanone interaction with high levels of control. Since there is no AHL-based quorum sensing system present in Escherichia coli (Williams et al., 2000), this bacterium provides an unbiased and well-defined genetic background for studying the direct effects of the furanone on the P. aeruginosa las quorum sensing system. We repeated the above-described experiments using E. coli MT102 as a heterologous host for the reporter system. […] This is likely to be attributed to the increased copy number of the reporter plasmid.

P. aeruginosa PAO-JP2 = assay: Growth of P. aeruginosa PAO-JP2; assay type: cell-based, Pseudomonas aeruginosa; conditions: data not shown
elastase = assay: Virulence factor production: elastase (proteolytic) activity of PAO-JP2 supernatant; assay type: cell-based, Pseudomonas aeruginosa; conditions: PAO-JP2, 70 nm OdDHL plus 3 μg/ml and 5 μg/ml furanone 56
Method: Measurements of virulence factors. PAO-JP2 was grown in LB medium at 37° C. and shaking at 250 rpm to an OD600 nm of 1.0. The culture was divided into seven subcultures, which were added 0, 70, or 1000 nm OdDHL and 0. 3. or 5 μg/ml furanone 58. The cultures were grown for an additional 4 hours at 37° C. The proteolytic activity was measured as described by Ayora & G{overscore (o)}tz (1994). Azocasein (250 μl 2%, Sigma, St. Louis, Mo.) in 50 mM Tris/HCl and steril-filtered (Ø 0.2 μm) supernatant (150 μl) were incubated for 4 h at […] After precipitation of undigested substrate with trichloroacetic acid (1.2 ml 10%) for 15 minutes, followed by 10 minutes centrifugation at 1000 rpm, NaOH (1.4 ml 1 M) were added to the supernatant. The relative protease activity was measured as the absorbance at 440 nm (OD440 nm) of the supernatant divided by the optical density of the culture (OD600 nm ).

O=C1C=C/C(=C/Br)O1 [furanone 56]
QSI activity / lasB promoter activity in heterologous E. coli background [1]: repressed lasB promoter activity | QSI activity / lasB promoter activity in heterologous E. coli background ([1]; listed as furanone): observed | effect on growth rate (P. aeruginosa PAO-JP2): no effect on growth rate | elastase activity (elastase): close to the uninduced level
